Assay results reported in BindingDB's records for doi:10.7270/Q2QF8R8B (Pcmd, 2008).

Each compound was assayed against T1, Cathepsin G (Homo sapiens, UniProt P08311) (assay: IC50 of CTSG protease blockers – biochemical, confirmation, dose response (AID 832)).
T1 sequence (P08311 whole entry): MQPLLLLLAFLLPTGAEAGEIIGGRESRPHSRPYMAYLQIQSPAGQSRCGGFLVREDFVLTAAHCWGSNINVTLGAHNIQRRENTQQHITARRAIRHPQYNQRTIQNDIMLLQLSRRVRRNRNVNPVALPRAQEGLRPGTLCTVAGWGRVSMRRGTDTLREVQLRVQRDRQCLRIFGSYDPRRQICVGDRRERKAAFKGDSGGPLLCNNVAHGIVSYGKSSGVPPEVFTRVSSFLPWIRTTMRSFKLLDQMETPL

SMILES	IC50 [µM]
COc1ccccc1-c1cc(C(=O)NCc2ccc(Cl)cc2)no1 [MLS000087096]	11.1
COc1ccc(-c2cc(C(=O)NCc3ccc(Cl)cc3)no2)cc1OC [MLS000087122]	43.2
O=C(NCCc1ccccc1)c1noc2c1CCc1ccccc1-2 [MLS000087424]	2.48
O=C(NCCN1CCOCC1)c1noc2c1CCc1ccccc1-2 [MLS000087427]	5.32
COc1ccc2c(c1)CCc1c(C(=O)NCc3ccco3)noc1-2 [MLS000087436]	1.58
COc1ccc2c(c1)CCc1c(C(=O)NC3CCCCC3)noc1-2 [MLS000087437]	0.631
COc1ccc2c(c1)CCc1c(C(=O)NCCCn3ccnc3)noc1-2 [MLS000087439]	4.13
COc1ccc2c(c1)CCc1c(C(=O)Nc3ccc(OC)c(OC)c3)noc1-2 [MLS000087452]	14.5
COc1ccc2c(c1)CCc1c(C(=O)Nc3c(C)n(C)n(-c4ccccc4)c3=O)noc1-2 [MLS000087455]	4.64
COc1ccc2c(c1)CCc1c(C(=O)Nc3cc(C)n(Cc4ccc(Cl)cc4)n3)noc1-2 [MLS000087458]	1.47
O=c1[nH]c(CN2CCc3ccccc3C2)nc2ccccc12 [MLS000088906]	> 50
CCC(=O)Nc1cccc(-c2nc3ccccc3c(=O)o2)c1 [MLS000090237]	3.43
COc1cc(NC(=O)c2csc3c2CCCC3)ncn1 [MLS000093387]	> 50
COc1ccc(C(=O)n2nc(-c3ccccc3)nc2N)cc1OC [MLS000099650]	4.43
O=C1CCCC(=O)C1=CNCCc1ccccc1 [MLS000108318]	> 50
CCCNC(=O)c1noc2c1CCc1ccccc1-2 [MLS000116420]	2.55
Cc1cc(NC(=O)c2noc3c2CCc2ccccc2-3)no1 [MLS000116422]	4.25

SMILES	IC50 [µM]
Cc1cc(NC(=O)c2noc3c2CCc2ccccc2-3)n(-c2ccccc2)n1 [MLS000116423]	> 50
Cc1ccccc1Cn1nc(C)c(NC(=O)c2noc3c2CCc2ccccc2-3)c1C [MLS000116424]	6.45
COc1ccc2c(c1)CCc1c(C(=O)NCc3ccc(F)cc3)noc1-2 [MLS000116425]	2.52
O=C(NCCCn1ccnc1)c1noc2c1CCc1ccccc1-2 [N-[3-(1-imidazolyl)propyl]-4,5-dihydrobenzo[g][1,2]benzoxazole-3-carboxamide]	3.73
CCCC(=O)Nc1ccc(C(=O)n2nnc3ccccc32)cc1 [N-[4-(1H-1,2,3-benzotriazol-1-ylcarbonyl)phenyl]butanamide]	0.923
Nc1cc(OC(=O)c2cccs2)nn1S(=O)(=O)c1ccccc1 [SMR000021562]	3.26
COc1ccccc1/N=C/c1nc(-c2ccccc2)oc1OC(C)=O [SMR000039734]	37.9
CC(C)[C@H](NC(=O)OC(C)(C)C)c1nnc(S(=O)(=O)Cc2c(F)cccc2Cl)o1 [SMR000044502]	9.38
Cc1ccccc1CS(=O)(=O)c1nnc([C@H](CC(C)C)NC(=O)OC(C)(C)C)o1 [SMR000044673]	22.6
CC(C)(C)OC(=O)N[C@@H](Cc1ccccc1)c1nnc(S(=O)(=O)Cc2ccccc2)o1 [SMR000047857]	1.95
COc1ccccc1-c1c(C#N)c(SCC(=O)N2CCCC2)nc(C)c1C(N)=O [SMR000061200]	> 50
Cc1nn(C(=O)c2ccccc2)c2c1C(=O)CC(C)(C)C2 [SMR000069174]	10.8
COc1ccc(C(=O)n2nc(-c3ccc(Cl)cc3)nc2N)cc1OC [SMR000074176]	32.2
Cc1cc(OC(=O)c2ccccc2)n(CCC#N)n1 [[2-(2-cyanoethyl)-5-methyl-pyrazol-3-yl] benzoate]	2.26
CSc1nc(-c2ccco2)nn1C(=O)c1ccc(C)cc1 [[3-(furan-2-yl)-5-methylsulfanyl-1,2,4-triazol-1-yl]-(4-methylphenyl)methanone]	1.02
CSc1nc(-c2ccco2)nn1C(=O)c1cccs1 [[3-(furan-2-yl)-5-methylsulfanyl-1,2,4-triazol-1-yl]-thiophen-2-ylmethanone]	1.78
CC(C)(C)OC(=O)N[C@@H](Cc1ccccc1)c1nnc(S(=O)(=O)Cc2cccc(F)c2)o1 [tert-butyl N-[(1S)-1-[5-[(3-fluorophenyl)methylsulfonyl]-1,3,4-oxadiazol-2-yl]-2-phenylethyl]carbamate]	2.67
